Test results from patent EP2518054A1, “AMIDE COMPOUND” (Takeda Pharmaceutical Company Limited, priority 2009, dated 2011).

Target: T1, human GPR52 (Homo sapiens, UniProt Q9Y2T5)
T1 construct: expressed in transfected cells; host or cells: CHO(dhfr-) cells
Test: Increase of intracellular cAMP concentration in human GPR52-expressing CHO cell (AlphaScreen cAMP assay)
Assay type: cell-based
Conditions: human GPR52-expressing CHO(dhfr-) cells; for activity at 1 µM: CHO, read-out: GPR52 agonist activity (%); for EC50: concentration of the test compound at which it shows 50% activity, read-out: GPR52 agonist activity EC50
Procedure: Increase of intracellular cAMP concentration in human GPR52-expressing CHO cell
Using OptiPlate-384 (PerkinElmer Inc.), 1×10^4 human GPR52-expressing CHO(dhfr-) cells were incubated together with various concentration(10^-5µM - 10µm) of a test compound in an assay buffer (30 µL, HBSS (containing Ca^2+ and Mg^2+), 0.5% BSA, 100 µM IBMX, 100 µM Ro20-1724, 5 mM HEPES (pH 7.55)) at 37°C for 30 min. Thereafter, according to the protocol of AlphaScreen CAMP Assay Kit (PerkinElmer Inc.), the intracellular cAMP concentration was measured by EnVision (PerkinElmer Inc.). The GPR52 agonist activity was calculated, assuming the intracellular cAMP concentration in the presence of […] N-(2-hydroxyethyl)-3-[2-[3-(trifluoromethyl)benzyl]-1-benzofuran-4-yl]benzamide (Reference Example 79) to be 100% and assuming the intracellular cAMP concentration when DMSO was added instead of the test compound to be 0%.

[1] = 1µM test compound, 100% = cAMP with 1 µM Reference Example 79, 0% = DMSO, 37°C, 30 min

T1 sequence (Q9Y2T5 whole entry): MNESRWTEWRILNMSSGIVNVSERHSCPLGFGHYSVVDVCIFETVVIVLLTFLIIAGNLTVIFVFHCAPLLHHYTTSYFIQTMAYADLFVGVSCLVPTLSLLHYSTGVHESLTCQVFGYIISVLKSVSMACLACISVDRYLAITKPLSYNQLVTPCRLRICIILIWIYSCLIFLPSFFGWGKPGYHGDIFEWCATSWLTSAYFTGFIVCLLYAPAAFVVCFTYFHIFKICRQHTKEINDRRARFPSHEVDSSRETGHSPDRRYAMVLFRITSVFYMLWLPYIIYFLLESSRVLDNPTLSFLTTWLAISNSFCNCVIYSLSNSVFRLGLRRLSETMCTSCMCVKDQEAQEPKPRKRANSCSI

Row | activity at 1 µM [1] [%] | EC50 [nM] | GPR52 agonist activity (%) [1] [%] | SMILES
1 | 107 |  |  | Cc1nn(-c2cccc3cc(Cc4cccc(C(F)(F)F)c4)sc23)c(C)c1C(=O)NCCO [Example 52, N-(2-hydroxyethyl)-3,5-dimethyl-1-[2-[3-(trifluoromethyl)benzyl]-1-benzothiophen-7-yl]-1H-pyrazole-4-carboxamide]
2 | 102 |  |  | Cc1nn(-c2cccc3nn(Cc4cc(F)cc(Cl)c4)cc23)c(C)c1C(N)=O [Example 81, 1-[2-(3-chloro-5-fluorobenzyl)-2H-indazol-4-yl]-3,5-dimethyl-1H-pyrazole-4-carboxamide]
3 | 102 |  |  | Cc1nn(-c2cccc3nn(Cc4cccc(C(F)(F)F)c4)cc23)c(C)c1C(=O)NCCO [Example 79, N-(2-hydroxyethyl)-3,5-dimethyl-1-[2-[3-(trifluoromethyl)benzyl]-2H-indazol-4-yl]-1H-pyrazole-4-carboxamide]
4 | 84 |  |  | COc1cc(Cc2cc3cccc(-n4nc(C)c(C(=O)NCC(N)=O)c4C)c3s2)ccc1F [Example 96, N-(2-amino-2-oxoethyl)-1-[2-(4-fluoro-3-methoxybenzyl)-1-benzothiophen-7-yl]-3,5-dimethyl-1H-pyrazole-4-carboxamide]
5 | 89 |  |  | COCCNC(=O)c1c(C)nn(-c2cccc3cc(Cc4cccc(C(F)(F)F)c4)sc23)c1CO [Example 66, 5-(hydroxymethyl)-N-(2-methoxyethyl)-3-methyl-1-[2-[3-(trifluoromethyl)benzyl]-1-benzothiophen-7-yl]-1H-pyrazole-4-carboxamide]
6 | 96 |  |  | COCCNC(=O)c1c(C)nn(-c2cccc3cc(Cc4cc(F)cc(Cl)c4)sc23)c1C [Example 57, 1-[2-(3-chloro-5-fluorobenzyl)-1-benzothiophen-7-yl]-N-(2-methoxyethyl)-3,5-dimethyl-1H-pyrazole-4-carboxamide]
7 | 89 |  |  | Cc1nn(-c2cccc3sc(Cc4cc(F)cc(Cl)c4)cc23)c(C)c1C(N)=O [Example 109, 1-[2-(3-chloro-5-fluorobenzyl)-1-benzothiophen-4-yl]-3,5-dimethyl-1H-pyrazole-4-carboxamide]
8 | 99 |  |  | Cc1nn(-c2ccc(F)c3cc(Cc4cc(F)cc(Cl)c4)sc23)c(CO)c1C(=O)NCC(N)=O [Example 89, N-(2-amino-2-oxoethyl)-1-[2-(3-chloro-5-fluorobenzyl)-4-fluoro-1-benzothiophen-7-yl]-5-(hydroxymethyl)-3-methyl-1H-pyrazole-4-carboxamide]
9 | 89 | 38 |  | Cn1nc(-c2cccc3cc(Cc4cccc(C(F)(F)F)c4)sc23)cc1C(=O)NCCO [Example 111, N-(2-hydroxyethyl)-1-methyl-3-[2-[3-(trifluoromethyl)benzyl]-1-benzathiophen-7-yl]-1H-pyrazole-5-carboxamide]
10 | 98 |  |  | Cc1nn(-c2cccc3nn(Cc4cccc(C(F)(F)F)c4)cc23)c(C)c1C(=O)NCC(N)=O [Example 80, N-(2-amino-2-oxoethyl)-3,5-dimethyl-1-[2-[3-(trifluoromethyl)benzyl]-2H-indazol-4-yl]-1H-pyrazole-4-carboxamide]
11 | 96 |  |  | Cc1cccc(Cc2cc3cccc(-n4nc(C)c(C(=O)NCCO)c4C)c3s2)c1 [Example 94, N-(2-hydroxyethyl)-3,5-dimethyl-1-[2-(3-methylbenzyl)-1-benzothiophen-7-yl]-1H-pyrazole-4-carboxamide]
12 | 95 |  |  | NC(=O)CNC(=O)c1cn(-c2cccc3cc(Cc4cccc(C(F)(F)F)c4)sc23)nc1C1CC1 [Example 28, N-(2-amino-2-oxoethyl)-3-cyclopropyl-1-[2-[3-(trifluoromethyl)benzyl]-1-benzothiophen-7-yl]-1H-pyrazole-4-carboxamide]
13 | 97 |  |  | Cc1nn(-c2ccc(F)c3cc(Cc4cccc(C(F)(F)F)c4)sc23)c(CO)c1C(N)=O [Example 73, 1-[4-fluoro-2-[3-(trifluoromethyl)benzyl]-1-benzothiophen-7-yl]-5-(hydroxymethyl)-3-methyl-1H-pyrazole-4-carboxamide]
14 | 105 |  |  | Cc1nn(-c2cccc3nn(Cc4cc(F)cc(C(F)(F)F)c4)cc23)c(C)c1C(=O)NCCO [Example 84, 1-[2-[3-fluoro-5-(trifluoromethyl)benzyl]-2H-indazol-4-yl]-N-(2-hydroxyethyl)-3,5-dimethyl-1H-pyrazole-4-carboxamide]
15 | 93 |  |  | Cc1nn(-c2ccc(F)c3cc(Cc4cccc(C(F)(F)F)c4)sc23)c(C)c1C(N)=O [Example 61, 1-[4-fluoro-2-[3-(trifluoromethyl)benzyl]-1-benzothiophen-7-yl]-3,5-dimethyl-1H-pyrazole-4-carboxamide]
16 | 107 |  |  | Cc1cn(-c2cccc3cc(Cc4cccc(C(F)(F)F)c4)sc23)cc1C(=O)NCC(N)=O [Example 12, N-(2-amino-2-oxoethyl)-4-methyl-1-[2-[3-(trifluoromethyl)benzyl]-1-benzothiophen-7-yl]-1H-pyrrole-3-carboxamide]
17 | 85 |  | 102 | Cc1nc(-c2cccc3nn(Cc4cc(F)cc(C(F)(F)F)c4)cc23)sc1C(N)=O [Example 86, 2-[2-[3-fluoro-5-(trifluoromethyl)benzyl]-2H-indazol-4-yl]-4-methyl-1,3-thiazole-5-carboxamide]
18 | 97 |  |  | O=C(NCCO)c1cn(-c2cccc3cc(Cc4cccc(C(F)(F)F)c4)sc23)nc1C1CC1 [Example 29, 3-cyclopropyl-N-(2-hydroxyethyl)-1-[2-[3-(trifluoromethyl)benzyl]-1-benzothiophen-7-yl]-1H-pyrazole-4-carboxamide]
19 | 96 |  |  | Cc1cn(-c2cccc3cc(Cc4cccc(C(F)(F)F)c4)sc23)nc1C(=O)NCC(N)=O [Example 30, N-(2-amino-2-oxoethyl)-4-methyl-1-[2-[3-(trifluoromethyl)benzyl]-1-benzothiophen-7-yl]-1H-pyrazole-3-carboxamide]
20 | 101 | 30 |  | Cc1nn(-c2cccc3oc(Cc4cccc(C(F)(F)F)c4)cc23)c(C)c1C(=O)NCCO [Example 75, N-(2-hydroxyethyl)-3,5-dimethyl-1-[2-[3-(trifluoromethyl)benzyl]-1-benzofuran-4-yl]-1H-pyrazole-4-carboxamide]
21 | 78 |  |  | Cc1c(C(N)=O)c(CO)nn1-c1cccc2cc(Cc3cccc(C(F)(F)F)c3)sc12 [Example 69, 3-(hydroxymethyl)-5-methyl-1-[2-[3-(trifluoromethyl)benzyl]-1-benzothiophen-7-yl]-1H-pyrazole-4-carboxamide]
22 | 102 |  |  | Cc1nn(-c2cccc3cc(Cc4cccc(C(F)(F)F)c4)sc23)c(C)c1C(=O)NCC(N)=O [Example 53, N-(2-amino-2-oxoethyl)-3,5-dimethyl-1-[2-[3-(trifluoromethyl)benzyl]-1-benzothiophen-7-yl]-1H-pyrazole-4-carboxamide]
23 | 99 | 13 |  | Cc1nn(-c2cccc3cc(Cc4cc(F)cc(F)c4)sc23)c(C)c1C(=O)NCCO [Example 99, 1-[2-(3,5-difluorobenzyl)-1-benzothiophen-7-yl]-N-(2-hydroxyethyl)-3,5-dimethyl-1H-pyrazole-4-carboxamide]
24 | 93 |  |  | Cc1nn(-c2cccc3sc(Cc4cc(F)cc(Cl)c4)cc23)c(C)c1C(=O)NCCO [Example 108, 1-[2-(3-chloro-5-fluorobenzyl)-1-benzothiophen-4-yl]-N-(2-hydroxyethyl)-3,5-dimethyl-1H-pyrazole-4-carboxamide]
25 | 114 | 27 |  | Cc1nn(-c2ccc(F)c3cc(Cc4cccc(C(F)(F)F)c4)sc23)c(CO)c1C(=O)NCCO [Example 71, 1-[4-fluoro-2-[3-(trifluoromethyl)benzyl]-1-benzothiophen-7-yl]-N-(2-hydroxyethyl)-5-(hydroxymethyl)-3-methyl-1H-pyrazole-4-carboxamide]
26 | 105 |  |  | Cc1nn(-c2ccc(F)c3cc(Cc4cccc(C(F)(F)F)c4)sc23)c(C)c1C(=O)NCCO [Example 62, 1-[4-fluoro-2-[3-(trifluoromethyl)benzyl]-1-benzothiophen-7-yl]-N-(2-hydroxyethyl)-3,5-dimethyl-1H-pyrazole-4-carboxamide]
27 | 93 |  |  | Cc1nn(-c2ccc(F)c3cc(Cc4cc(F)cc(Cl)c4)sc23)c(C)c1C(=O)NCC(N)=O [Example 59, N-(2-amino-2-oxoethyl)-1-[2-(3-chloro-5-fluorobenzyl)-4-fluoro-1-benzothiophen-7-yl]-3,5-dimethyl-1H-pyrazole-4-carboxamide]
28 | 104 |  |  | Cc1nn(-c2cccc3nn(Cc4cc(F)cc(C(F)(F)F)c4)cc23)c(C)c1C(N)=O [Example 83, 1-[2-[3-fluoro-5-(trifluoromethyl)benzyl]-2H-indazol-4-yl]-3,5-dimethyl-1H-pyrazole-4-carboxamide]
29 | 97 | 18 |  | Cc1nn(-c2cccc3cc(Cc4cccc(C(F)(F)F)c4)sc23)c(CO)c1C(N)=O [Example 64, 5-(hydroxymethyl)-3-methyl-1-[2-[3-(trifluoromethyl)benzyl]-1-benzothiophen-7-yl]-1H-pyrazole-4-carboxamide]
